Experimental data taken from PubChem BioAssay AID330 (DTP/NCI, 2004).
Where “and” joins values, the source holds several entries; their conditions need not be identical. Equal entries are not always repeated. Toxic doses and inconclusive results are not listed. The calls were made as follows: active = survival T/C of 150% or more; inactive = T/C below 125% in these data.

Tested on: P388 leukemia ip, CD2F1 mice, survival T/C
Test: NCI In Vivo Anticancer Drug Screen. Data for tumor model P388 Leukemia (intraperitoneal) in CD2F1 (CDF1) mice
Conditions: endpoint: median survival time, higher = longer survival
Summary of the method: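 Mice carrying the transplanted tumor received test compound or vehicle. Survival was recorded in each group, and the value is the treated-group measurement divided by that of the vehicle-treated control group.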

[1] = dose: 25.0 mg/kg/injection, schedule: Q04DX002 (ip), vehicle: saline with Tween-80
[2] = dose: 50.0 mg/kg/injection, schedule: Q04DX002 (ip), vehicle: saline with Tween-80
[3] = dose: 60.0 mg/kg/injection, schedule: Q01DX005 (ip), vehicle: saline with Tween-80
[4] = dose: 120.0 mg/kg/injection, schedule: Q01DX005 (ip), vehicle: saline with Tween-80
[5] = dose: 240.0 mg/kg/injection, schedule: Q01DX005 (ip), vehicle: saline with Tween-80
[6] = dose: 12.5 mg/kg/injection, schedule: Q01DX005 (ip), vehicle: saline
[7] = dose: 25.0 mg/kg/injection, schedule: Q01DX005 (ip), vehicle: saline
[8] = dose: 50.0 mg/kg/injection, schedule: Q01DX005 (ip), vehicle: saline
[9] = dose: 50.0 mg/kg/injection, schedule: Q01DX005 (ip), vehicle: saline with Tween-80
[10] = dose: 100.0 mg/kg/injection, schedule: Q01DX005 (ip), vehicle: saline with Tween-80
[11] = dose: 200.0 mg/kg/injection, schedule: Q01DX005 (ip), vehicle: saline with Tween-80
[12] = dose: 50.0 mg/kg/injection, schedule: Q01DX009 (ip), vehicle: saline with Tween-80
[13] = dose: 200.0 mg/kg/injection, schedule: Q01DX009 (ip), vehicle: saline with Tween-80
[14] = dose: 100.0 mg/kg/injection, schedule: Q01DX009 (ip), vehicle: saline with Tween-80
[15] = dose: 50.0 mg/kg/injection, schedule: Q01DX009 (ip), vehicle: saline
[16] = dose: 100.0 mg/kg/injection, schedule: Q01DX009 (ip), vehicle: saline
[17] = dose: 200.0 mg/kg/injection, schedule: Q01DX009 (ip), vehicle: saline

Measured: T/C

Cc1ccc(S(=O)(=O)C23N=NC(C)(C)C2C2CC3C3CN=NC32)cc1 (stereo not given)
inactive: dose: 100.0 mg/kg/injection, schedule: Q01DX001 (ip), vehicle: Klucel (hydroxypropylcellulose) (HPC) 103 % of control | dose: 200.0 mg/kg/injection, schedule: Q01DX001 (ip), vehicle: Klucel (hydroxypropylcellulose) (HPC) 109 % of control | dose: 400.0 mg/kg/injection, schedule: Q01DX001 (ip), vehicle: Klucel (hydroxypropylcellulose) (HPC) 102 % of control

Cc1cccc(NC(N)=S)n1
inactive: dose: 12.5 mg/kg/injection, schedule: Q01DX009 (ip), vehicle: other 108 % of control | dose: 25.0 mg/kg/injection, schedule: Q01DX009 (ip), vehicle: other 98 % of control | dose: 50.0 mg/kg/injection, schedule: Q01DX009 (ip), vehicle: other 115 % of control | dose: 100.0 mg/kg/injection, schedule: Q01DX009 (ip), vehicle: other 119 % of control

CN=C(N)N/N=C(\c1ccc(Cl)cc1)c1ccc([N+](=O)[O-])cc1Cl
inactive: [1] 100 % of control | [2] 101 % of control

Oc1c(-c2ccccc2)cc(-[n+]2c(-c3ccccc3)cc(-c3ccccc3)cc2-c2ccccc2)cc1-c1ccccc1
inactive: dose: 0.38 mg/kg/injection, schedule: Q01DX009 (ip), vehicle: saline with Tween-80 88 % of control | dose: 0.75 mg/kg/injection, schedule: Q01DX009 (ip), vehicle: saline with Tween-80 106 % of control | dose: 1.5 mg/kg/injection, schedule: Q01DX009 (ip), vehicle: saline with Tween-80 121 % of control | dose: 3.0 mg/kg/injection, schedule: Q01DX009 (ip), vehicle: saline with Tween-80 122 % of control

O=c1[nH]c2c([N+](=O)[O-])cc(Cl)cc2nc1/C=C(\O)c1cccnc1
inactive: dose: 60.0 mg/kg/injection, schedule: Q01DX005 (ip), vehicle: Klucel (hydroxypropylcellulose) (HPC) 99 % of control | dose: 120.0 mg/kg/injection, schedule: Q01DX005 (ip), vehicle: Klucel (hydroxypropylcellulose) (HPC) 99 % of control | dose: 240.0 mg/kg/injection, schedule: Q01DX005 (ip), vehicle: Klucel (hydroxypropylcellulose) (HPC) 111 % of control

COC(=O)c1c(C(N)=O)c(C)n(NC(=O)c2ccccc2)c1C
inactive: [3] 95 % of control | [4] 93 % of control | [5] 94 % of control

[Cl][Pd][Cl].[NH-]C1CCCC2CCC[N-]C12 (stereo not given)
inactive: dose: 12.5 mg/kg/injection, schedule: Q04DX002 (ip), vehicle: saline with Tween-80 104 % of control | [1] 110 % of control | [2] 104 % of control

C=CCCCCCCCCCC(=O)C=C
inactive: dose: 2.75 mg/kg/injection, schedule: Q01DX005 (ip), vehicle: Klucel (hydroxypropylcellulose) (HPC) 98 % of control | dose: 5.5 mg/kg/injection, schedule: Q01DX005 (ip), vehicle: Klucel (hydroxypropylcellulose) (HPC) 99 % of control | dose: 11.0 mg/kg/injection, schedule: Q01DX005 (ip), vehicle: Klucel (hydroxypropylcellulose) (HPC) 92 % of control | dose: 22.0 mg/kg/injection, schedule: Q01DX005 (ip), vehicle: Klucel (hydroxypropylcellulose) (HPC) 92 % of control | dose: 44.0 mg/kg/injection, schedule: Q01DX005 (ip), vehicle: Klucel (hydroxypropylcellulose) (HPC) 91 % of control

CCN(CC)CCNC(=O)c1noc2cc([N+](=O)[O-])ccc12
inactive: [6] 109 % of control | [7] 115 % of control | [8] 103 % of control and 97 % of control

CC12C(=O)NC(c3ccncc3)(c3ccccc31)C1C(=O)N(c3ccccc3)C(=O)C12 (stereo not given)
inactive: [3] 96 % of control | [4] 94 % of control | [5] 94 % of control

Cc1cccc(NC(=O)C(=O)C(C#N)c2c(Cl)cccc2Cl)c1C (stereo not given)
inactive: [3] 102 % of control | [4] 96 % of control | [5] 100 % of control

CC1(C)OC2CC(=O)OCC23C1=C(O)C(=O)C1(C)C3CCC2(C)C(c3ccoc3)OC(=O)C3OC321 (stereo not given)
inactive: dose: 0.5 mg/kg/injection, schedule: Q01DX009 (ip), vehicle: saline + alcohol 101 % of control | dose: 1.0 mg/kg/injection, schedule: Q01DX009 (ip), vehicle: saline + alcohol 104 % of control | dose: 2.0 mg/kg/injection, schedule: Q01DX009 (ip), vehicle: saline + alcohol 106 % of control | dose: 4.0 mg/kg/injection, schedule: Q01DX009 (ip), vehicle: saline + alcohol 106 % of control | dose: 8.0 mg/kg/injection, schedule: Q01DX009 (ip), vehicle: saline + alcohol 101 % of control

C=CC1(O)Cc2cc(C(C)C)c(OC)c(OC)c21 (stereo not given)
inactive: [9] 106 % of control | [10] 119 % of control | [11] 109 % of control

Cn1c(C(C)(C)O)cnc1[N+](=O)[O-]
inactive: [12] 103 % of control | [13] 94 % of control

CCOC1OCN(CCc2ccccc2)CC1(C)C (stereo not given)
inactive: [12] 108 % of control | [14] 119 % of control | [13] 118 % of control

CC1=NN(c2cccc(S(=O)(=O)O)c2)C(=O)C1
inactive: dose: 25.0 mg/kg/injection, schedule: Q01DX009 (ip), vehicle: saline sonified 100 % of control | dose: 50.0 mg/kg/injection, schedule: Q01DX009 (ip), vehicle: saline sonified 100 % of control | [15] 89 % of control | dose: 100.0 mg/kg/injection, schedule: Q01DX009 (ip), vehicle: saline sonified 100 % of control | [16] 95 % of control | [17] 96 % of control

CC1(C)COC1(c1ccccc1)c1cccnc1 (stereo not given)
inactive: [3] 97 % of control | [4] 102 % of control | [5] 93 % of control

O=C(NCCF)Oc1cc(Cl)c(Cl)cc1Cl
inactive: dose: 6.25 mg/kg/injection, schedule: Q01DX005 (ip), vehicle: Klucel (hydroxypropylcellulose) (HPC) 106 % of control | dose: 12.5 mg/kg/injection, schedule: Q01DX005 (ip), vehicle: Klucel (hydroxypropylcellulose) (HPC) 107 % of control and 120 % of control

O=C(NN=c1c(=O)c2ccccc2c1=O)c1ccncc1
inactive: [3] 112 % of control | [4] 119 % of control | [5] 119 % of control

O=C(c1ccc(Cl)cc1)n1c(Cl)c(/C=N\Nc2ccc([N+](=O)[O-])cc2[N+](=O)[O-])c2ccccc21
inactive: dose: 12.5 mg/kg/injection, schedule: Q01DX001 (ip), vehicle: Klucel (hydroxypropylcellulose) (HPC) 92 % of control | dose: 25.0 mg/kg/injection, schedule: Q01DX001 (ip), vehicle: Klucel (hydroxypropylcellulose) (HPC) 96 % of control | dose: 50.0 mg/kg/injection, schedule: Q01DX001 (ip), vehicle: Klucel (hydroxypropylcellulose) (HPC) 88 % of control

SC1CCCN(Cc2ccccc2)C1 (stereo not given)
inactive: [9] 117 % of control | [10] 108 % of control | [11] 110 % of control

CCCCCCCCCCCCOCCCOP(=O)([O-])OCC[N+](C)(C)C
inactive: dose: 6.25 mg/kg/injection, schedule: Q01DX005 (ip), vehicle: saline 105 % of control | [6] 100 % of control | [7] 91 % of control | [8] 91 % of control | dose: 100.0 mg/kg/injection, schedule: Q01DX005 (ip), vehicle: saline 107 % of control

CSC1=Nc2cccnc2Nc2cscc21
inactive: dose: 15.0 mg/kg/injection, schedule: Q01DX005 (ip), vehicle: saline with Tween-80 102 % of control | dose: 30.0 mg/kg/injection, schedule: Q01DX005 (ip), vehicle: saline with Tween-80 98 % of control | [3] 112 % of control and 94 % of control

OCCN=Cc1ccccc1O.OCCN=Cc1ccccc1O.[Cu]
inactive: dose: 50.0 mg/kg/injection, schedule: Q01DX005 (ip), vehicle: Klucel (hydroxypropylcellulose) (HPC) 110 % of control

N#CCCN(C(=O)Nc1ccc(Cl)c(Cl)c1)C1CCCCC1
inactive: dose: 12.5 mg/kg/injection, schedule: Q01DX009 (ip), vehicle: saline with Tween-80 98 % of control | dose: 25.0 mg/kg/injection, schedule: Q01DX009 (ip), vehicle: saline with Tween-80 101 % of control and 104 % of control | [12] 100 % of control and 103 % of control | [14] 91 % of control and 97 % of control

Nc1ccc(/C=C/c2ccc(N)cc2S(=O)(=O)O)c(S(=O)(=O)O)c1
inactive: dose: 25.0 mg/kg/injection, schedule: Q01DX009 (ip), vehicle: suspension in saline 99 % of control | [15] 104 % of control | dose: 50.0 mg/kg/injection, schedule: Q01DX009 (ip), vehicle: suspension in saline 95 % of control | [16] 104 % of control | dose: 100.0 mg/kg/injection, schedule: Q01DX009 (ip), vehicle: suspension in saline 99 % of control | [17] 108 % of control | dose: 200.0 mg/kg/injection, schedule: Q01DX009 (ip), vehicle: suspension in saline 107 % of control | dose: 400.0 mg/kg/injection, schedule: Q01DX009 (ip), vehicle: saline 110 % of control
